# “And” between values parts separate entries of the source, which are not always exact repeats. Equal values may be shown once. Read-outs that look alike come from different tables or passages of the source.
# Experiments:
# [1] = system: Rhinovirus type 14 (ATCC #VR-284); type: cell-based
# Bacillus coagulans = assay: Probiotic growth in media supplemented with MSM; type: cell-based
# Source text: Plates were then counted. […] Data are presented in Cfu/mL.
substance,measurement,setting,value
Methylsulfonylmethane [MSM],Average Log Stimulation,[1],0.053log10 and 0.11log10
same,Average Percent Stimulation,[1],11.49% and 22.38%
same,Average TCID50,[1],4.42log10 and 5.00log10 and 5.58log10 and 5.42log10 and 5.67log10 and 5.25log10
same,Log Stimulation,[1],0.08log10 and 0.00log10 and 0.17log10
same,TCID50,[1],4.25log10 and 4.50log10 and 4.75log10 and 5.00log10 and 5.25log10 and 5.50log10 and 6.00log10 and 5.75log10
same,average log10 reduction,[1]; 1% MSM,0.14 log10
same,average percent reduction,[1]; 1% MSM,27.56%
same,average log10 reduction,[1]; 2% MSM,0.42 log10
same,average percent reduction,[1]; 2% MSM,61.98%
same,average log10 reduction,[1]; 3% MSM,0.11 log10
same,average percent reduction,[1]; 3% MSM,22.38%
same,average log10 reduction,[1]; 4% MSM,0.28 log10
same,average percent reduction,[1]; 4% MSM,47.52%
same,"HillSlope, best-fit value","[1]; log(inhibitor) vs. normalized response, variable slope",0.6280
same,"LogIC50, best-fit value","[1]; log(inhibitor) vs. normalized response, variable slope, dose in mM",1.582
same,Growth of Bacillus coagulans,"Bacillus coagulans; 0.125% MSM, 0 h",1.52 log10 CFU/mL
same,Growth of Bacillus coagulans,"Bacillus coagulans; 0.125% MSM, 8 h",4.81 log10 CFU/mL
same,Growth of Bacillus coagulans,"Bacillus coagulans; 0.125% MSM, 16 h",6.95 log10 CFU/mL
same,Growth of Bacillus coagulans,"Bacillus coagulans; 0.125% MSM, 24 h",9.87 log10 CFU/mL
same,Growth of Bacillus coagulans,"Bacillus coagulans; 0.125% MSM, 32 h",11.06 log10 CFU/mL
same,Growth of Bacillus coagulans,"Bacillus coagulans; 0.125% MSM, 40 h",11.72 log10 CFU/mL
same,Growth of Bacillus coagulans,"Bacillus coagulans; 0.125% MSM, 48 h",11.56 log10 CFU/mL
same,Growth of Bacillus coagulans,"Bacillus coagulans; 0.125% MSM, 56 h",9.60 log10 CFU/mL
same,Growth of Bacillus coagulans,"Bacillus coagulans; 0.125% MSM, 64 h",12.13 log10 CFU/mL
same,Growth of Bacillus coagulans,"Bacillus coagulans; 0.125% MSM, 72 h",10.14 log10 CFU/mL
same,Growth of Bacillus coagulans,"Bacillus coagulans; 0.2% MSM, 0 h",1.67 log10 CFU/mL
same,Growth of Bacillus coagulans,"Bacillus coagulans; 0.2% MSM, 8 h",4.94 log10 CFU/mL
same,Growth of Bacillus coagulans,"Bacillus coagulans; 0.2% MSM, 16 h",7.19 log10 CFU/mL
same,Growth of Bacillus coagulans,"Bacillus coagulans; 0.2% MSM, 24 h",10.34 log10 CFU/mL
same,Growth of Bacillus coagulans,"Bacillus coagulans; 0.2% MSM, 32 h",11.25 log10 CFU/mL
same,Growth of Bacillus coagulans,"Bacillus coagulans; 0.2% MSM, 40 h",11.34 log10 CFU/mL
same,Growth of Bacillus coagulans,"Bacillus coagulans; 0.2% MSM, 48 h",9.94 log10 CFU/mL
same,Growth of Bacillus coagulans,"Bacillus coagulans; 0.2% MSM, 56 h",11.45 log10 CFU/mL
same,Growth of Bacillus coagulans,"Bacillus coagulans; 0.2% MSM, 64 h",11.37 log10 CFU/mL
same,Growth of Bacillus coagulans,"Bacillus coagulans; 0.2% MSM, 72 h",10.94 log10 CFU/mL
same,Growth of Bacillus coagulans,"Bacillus coagulans; 0.50% MSM, 0 h",1.48 log10 CFU/mL
same,Growth of Bacillus coagulans,"Bacillus coagulans; 0.50% MSM, 8 h",4.42 log10 CFU/mL
same,Growth of Bacillus coagulans,"Bacillus coagulans; 0.50% MSM, 16 h",6.94 log10 CFU/mL
same,Growth of Bacillus coagulans,"Bacillus coagulans; 0.50% MSM, 24 h",10.29 log10 CFU/mL
same,Growth of Bacillus coagulans,"Bacillus coagulans; 0.50% MSM, 32 h",11.05 log10 CFU/mL
same,Growth of Bacillus coagulans,"Bacillus coagulans; 0.50% MSM, 40 h",10.25 log10 CFU/mL
same,Growth of Bacillus coagulans,"Bacillus coagulans; 0.50% MSM, 48 h",10.40 log10 CFU/mL
same,Growth of Bacillus coagulans,"Bacillus coagulans; 0.50% MSM, 56 h",10.76 log10 CFU/mL
same,Growth of Bacillus coagulans,"Bacillus coagulans; 0.50% MSM, 64 h",10.45 log10 CFU/mL
same,Growth of Bacillus coagulans,"Bacillus coagulans; 0.50% MSM, 72 h",10.86 log10 CFU/mL
same,Growth of Bacillus coagulans,"Bacillus coagulans; 1% MSM, 0 h",1.30 log10 CFU/mL
same,Growth of Bacillus coagulans,"Bacillus coagulans; 1% MSM, 8 h",4.98 log10 CFU/mL
same,Growth of Bacillus coagulans,"Bacillus coagulans; 1% MSM, 16 h",7.29 log10 CFU/mL
same,Growth of Bacillus coagulans,"Bacillus coagulans; 1% MSM, 24 h",10.30 log10 CFU/mL
same,Growth of Bacillus coagulans,"Bacillus coagulans; 1% MSM, 32 h",11.42 log10 CFU/mL
same,Growth of Bacillus coagulans,"Bacillus coagulans; 1% MSM, 40 h",11.02 log10 CFU/mL
same,Growth of Bacillus coagulans,"Bacillus coagulans; 1% MSM, 48 h",10.38 log10 CFU/mL
same,Growth of Bacillus coagulans,"Bacillus coagulans; 1% MSM, 56 h",10.86 log10 CFU/mL
same,Growth of Bacillus coagulans,"Bacillus coagulans; 1% MSM, 64 h",10.40 log10 CFU/mL
same,Growth of Bacillus coagulans,"Bacillus coagulans; 1% MSM, 72 h",10.70 log10 CFU/mL
same,Growth of Bacillus coagulans,"Bacillus coagulans; 5% MSM, 0 h",1.56 log10 CFU/mL
same,Growth of Bacillus coagulans,"Bacillus coagulans; 5% MSM, 8 h",4.61 log10 CFU/mL
same,Growth of Bacillus coagulans,"Bacillus coagulans; 5% MSM, 16 h",7.56 log10 CFU/mL
same,Growth of Bacillus coagulans,"Bacillus coagulans; 5% MSM, 24 h",10.48 log10 CFU/mL
same,Growth of Bacillus coagulans,"Bacillus coagulans; 5% MSM, 32 h",11.55 log10 CFU/mL
same,Growth of Bacillus coagulans,"Bacillus coagulans; 5% MSM, 40 h",10.85 log10 CFU/mL
same,Growth of Bacillus coagulans,"Bacillus coagulans; 5% MSM, 48 h",10.22 log10 CFU/mL
same,Growth of Bacillus coagulans,"Bacillus coagulans; 5% MSM, 56 h",11.1 log10 CFU/mL
same,Growth of Bacillus coagulans,"Bacillus coagulans; 5% MSM, 64 h",10.75 log10 CFU/mL
same,Growth of Bacillus coagulans,"Bacillus coagulans; 5% MSM, 72 h",11.81 log10 CFU/mL
same,Growth of Bacillus coagulans,"Bacillus coagulans; […] MSM, 0 h",1.43 log10 CFU/mL
same,Growth of Bacillus coagulans,"Bacillus coagulans; […] MSM, 8 h",5.13 log10 CFU/mL
same,Growth of Bacillus coagulans,"Bacillus coagulans; […] MSM, 16 h",7.05 log10 CFU/mL
same,Growth of Bacillus coagulans,"Bacillus coagulans; […] MSM, 24 h",10.22 log10 CFU/mL
